From patent US20100240641A1, “Aldosterone Synthase and/or 11B-hydroxylase Inhibitors” (priority 2006, published 2010) come the findings set out here.

One may read the inhibition as how much of the control response was suppressed. As usually defined, the IC50 is the concentration needed to halve the response being measured.

One assay addresses T1, CYP11B1 (Homo sapiens, UniProt P15538).
T1 construct: Thus, the NCl-H295R cells have Cyp11 B1 (steroid 11 p-hydroxylase); host or cells: NCI-H295R
T1 sequence (P15538 25-503): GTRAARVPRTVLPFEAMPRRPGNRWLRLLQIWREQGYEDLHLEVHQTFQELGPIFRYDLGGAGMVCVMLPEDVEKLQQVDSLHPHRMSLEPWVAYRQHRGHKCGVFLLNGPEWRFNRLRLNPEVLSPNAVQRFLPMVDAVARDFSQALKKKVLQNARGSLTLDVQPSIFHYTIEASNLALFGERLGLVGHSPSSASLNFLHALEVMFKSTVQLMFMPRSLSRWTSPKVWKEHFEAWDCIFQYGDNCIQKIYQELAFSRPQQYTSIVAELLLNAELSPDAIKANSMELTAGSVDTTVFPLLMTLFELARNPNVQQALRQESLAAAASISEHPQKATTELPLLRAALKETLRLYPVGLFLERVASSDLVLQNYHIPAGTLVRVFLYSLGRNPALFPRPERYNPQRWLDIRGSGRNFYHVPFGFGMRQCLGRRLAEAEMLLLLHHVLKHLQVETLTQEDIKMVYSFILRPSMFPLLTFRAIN
Nature of the assay: In vitro CYP11B1 inhibition: steroid release from NCI-H295R cells. Format: cell-based. As to conditions: 10 nM compound, read-out: 11B1 % Inhibition @ 10 nM. The text has this:
The in vitro inhibitory activities for CYP11B1 can be determined by the following assay.
The cell line NCI-H295R was originally isolated from an adrenocortical carcinoma and has been characterized in the literature through the stimulable secretion of steroid hormones and the presence of the enymes essential for steroidogenesis. Thus, the NCl-H295R cells have Cyp11 B1 (steroid 11 p-hydroxylase). The cells show the physiological property of zonally undifferentiated human foetal adrenocortical cells which, however, have the capacity to produce the steroid hormones which are formed in the three, phenotypically distinguishable zones in the adult adrenal cortex. […]
The excretion of aldosterone, cortisol, corticosterone and estradiol/estrone into the culture medium can be detected and quantified by commercially available, specific monoclonal antibodies in radioimmunoassays in accordance with the manufacturer's instructions.
Inhibition of the release of certain steroids can be used as a measure of the respective enzyme inhibition by the added test compounds. The dose-dependent inhibition of enzymic activity by a compound is calculated by means of an inhibition plot which is characterized by an IC50. […]

For the next assay, the target named is T2, aldosterone synthase (Homo sapiens, UniProt P19099).
T2 construct: host or cells: NCI-H295R
T2 sequence (P19099 25-503): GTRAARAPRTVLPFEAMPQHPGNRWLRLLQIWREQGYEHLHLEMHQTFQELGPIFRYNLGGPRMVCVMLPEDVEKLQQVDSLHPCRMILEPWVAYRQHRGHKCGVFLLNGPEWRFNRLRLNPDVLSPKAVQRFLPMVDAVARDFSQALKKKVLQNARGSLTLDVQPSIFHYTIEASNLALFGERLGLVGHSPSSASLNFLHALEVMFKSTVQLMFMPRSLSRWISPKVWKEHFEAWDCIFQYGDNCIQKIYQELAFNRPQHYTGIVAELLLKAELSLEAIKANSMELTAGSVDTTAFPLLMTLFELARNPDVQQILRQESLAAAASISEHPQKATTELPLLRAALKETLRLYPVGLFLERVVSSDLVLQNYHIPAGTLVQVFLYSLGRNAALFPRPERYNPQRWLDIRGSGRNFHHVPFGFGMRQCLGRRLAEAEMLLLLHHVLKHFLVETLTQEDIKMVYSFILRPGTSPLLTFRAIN
Nature of the assay: In vitro aldosterone synthase inhibition: aldosterone production in Ang II-stimulated NCI-H295R cells. Format: cell-based. As to conditions: read-out: AS IC50. The text has this:
In particular, the aldosterone synthase inhibitory activities in vitro can be determined by the following assay.
Human adrenocortical carcinoma NCI-H295R cell line is obtained from American Type Culture Collection (Manassas, Va.). Insulin/transferrin/selenium (ITS)-A supplement (100×), DMEM/F-12, antibiotic/antimycotic (100×), and fetal calf serum (FCS) are purchased from Gibco (Grand Island, N.Y.). Anti-mouse PVT scintillation proximity assay (SPA) beads and NBS 96-well plates are obtained from Amersham (Piscataway, N.J.) and Corning (Acton, Mass.), respectively. Solid black 96-well flat bottom plates were purchased from Costar (Corning; NY). Aldosterone and angiotensin (Ang II) are purchased from Sigma (St. Louis, Mo.). D[1,2,6,7-^3H(N)]aldosterone was acquired from PerkinElmer (Boston, Mass.). Nu-serum was a product of BD Biosciences (Franklin Lakes, N.J.). The NADPH regenerating system, dibenzylfluorescein (DBF), and human aromatase Supersomes® are obtained from Gentest (Woburn, Mass.). […]
Measurement of aldosterone activity can also be performed using a 96-well plate format. […] The amount of aldosterone in each sample is calculated by comparing with a standard curve generated using known quantities of the hormone.

Each structure is given as a SMILES string.

On to `CCC1(c2ccc(C)cc2OC)C(=O)N(Cc2ccc(F)cc2)Cc2cncn21` (stereo not drawn) [Compound 8, 5-(2-Methoxy-4-methyl-phenyl)-5-ethyl-7-(4-fluoro-benzyl)-7,8-dihydro-imidazo[1,5-a]pyrazin-6-one], for which the inhibition at 0.01 µM on CYP11B1 came to 98%.

Consider `CCC1(c2ccc(C#N)cc2F)C(=O)N(Cc2ccc(F)cc2)Cc2cncn21` (stereo not drawn) [Compound 7, 4-[5-Ethyl-7-(4-fluoro-benzyl)-6-oxo-5,6,7,8-tetrahydro-imidazo[1,5-a]pyrazin-5-yl]-3-fluoro-benzonitrile], for which the inhibition at 0.01 µM at CYP11B1 was 100%.

Consider `CCC1(c2ccc(C#N)cc2OC)C(=O)N(Cc2ccc(Cl)cc2)Cc2cncn21` (stereo not drawn) [Compound 1, 4-[7-(4-Chloro-benzyl)-5-ethyl-6-oxo-5,6,7,8-tetrahydro-imidazo[1,5-a]pyrazin-5-yl]-3-methoxy-benzonitrile], for which the IC50 on aldosterone synthase was 12 nM.
